Legend:
[1] = Tumor accumulation evaluated by fluorescence of tumor homogenate; assay type: in vivo; conditions: intravenous, 32 nmol in terms of the amount of dye, colon 26 tumor-bearing mouse, tail vein, 32 nmol as dye, 24 hours after administration
Method: The tumor accumulation was evaluated by an intraveneous injection of 100 microliters (13 nmol in terms of ICG) of various ICG-PEG aqueous solution into tumor-bearing mouse models, in which various cells were subcutaneously transplanted into BALB/c Slc-nu/nu mice. The mice were euthanized with a carbon dioxide gas 24 hours after the administration. Subsequently, each cancer tissue was enucleated. The cancer tissue was transferred to a plastic tube, 1% Triton-X100 aqueous solution 1.25 times the cancer tissue in weight was added, and a homogenate was produced using a plastic pestle. […] The amount of dye in the cancer tissue (% ID/g) was quantified by using IVIS (registered trademark) Imaging System 200 Series (produced by Caliper Life Science Inc.) and measuring the fluorescent intensity of the solution of the dye extracted from the tumor tissue and the standard solution for calibration in the state of the plastic tube.
In order to evaluate the tumor accumulation of the compound, a contrast medium was administered to a tail vein of a tumor-bearing mouse which had been transplanted a colon 26 cell line. […] Then, tumor accumulation 1 day after administration of the contrast medium into the tumor-bearing mouse was evaluated by photoacoustic imaging and fluorescence. […] The amount of accumulation into a tumor of the mouse was evaluated using fluorescence, as described below. […]

[2] = rat, ICG administered to the blood alone; cited from earlier work
colon 26 cell line = assay: Tumor accumulation evaluated by photoacoustic imaging; assay type: in vivo; conditions: colon 26 tumor-bearing mouse, tail vein, 32 nmol as dye, 797 nm
Method: Photoacoustic signals were measured before a prepared compound was administered and at any given timing after administration by using the commercially available photoacoustic imaging apparatus (Nexus128, produced by Endra Inc.), so that three-dimensional reconfiguration data were obtained respectively. The photoacoustic intensity in a region of interest (ROI) was measured on the basis of the resulting three-dimensional reconfiguration data.
In the example according to the present invention, the amount of migration of the compound to a tumor mass was evaluated using a tumor-bearing model mouse. […] The fluorescent imaging was performed using IVIS (registered trademark) Imaging System and fluorescent intensity of a region of interest (ROI) of the tumor portion was measured.
In order to evaluate the tumor accumulation of the compound, a contrast medium was administered to a tail vein of a tumor-bearing mouse which had been transplanted a colon 26 cell line. […] Then, tumor accumulation 1 day after administration of the contrast medium into the tumor-bearing mouse was evaluated by photoacoustic imaging and fluorescence. […] Subsequently, the relative photoacoustic signal intensity 1 day after administration relative to before administration was calculated. The amount of accumulation into a tumor of the mouse was evaluated using fluorescence, as described below. […]

[3] = Evaluation of retentivity of compound in blood (fluorescent intensity of blood); assay type: in vivo, nude mouse
Method: In order to examine the retentivity of the compound in blood, various compounds were administered to veins of nude mouse tails and the amounts of compounds remaining in blood were evaluated. […] The method for producing the compound was as described in Example 1. In Table 4, k represents 1,000. For example, 5 k represents 5,000.
The retentivity of the compound in blood was evaluated as described below. Blood samples were taken from a mouse 1 hour, 3 hours, 1 day, 2 days, and 1 week after administration, and the fluorescent intensity of the blood was measured using IVIS (registered trademark) Imaging System 200 Series (produced by Caliper Life Science Inc.). The amount of administration to the mouse was 0.5 mg/kg in terms of the amount of dye. […] It is considered that access of serum protein to the near-infrared organic dye was limited by bonding the branched chain PEG to the near-infrared organic dye, accumulation into a liver was reduced and, as a result, the retentivity in blood was acquired.

[4] = in vivo; cited from earlier work
[5] = nude mouse, tail vein, 0.5 mg/kg as dye, ICG 1 day after administration = 1

Q: What does the source list for `CC1(C)C(/C=C/C=C/C=C/C=C2/N(CCCCS(=O)(=O)[O-])c3ccc4ccccc4c3C2(C)C)=[N+](CCCCS(=O)(=O)[O-])c2ccc3ccccc3c21.[Na+]` [ICG, Indocyanine Green]?
A: tissue uptake at 24 h [1]: 0.1 %ID/g; Time after administration until photoacoustic signal intensity is reduced to the level of the blood [2]: several tens of minutes; Relative photoacoustic intensity (1 day after administration) (colon 26 cell line): 1; Retentivity in blood ([3]; in words): disappeared from the blood promptly; Relative concentration in blood, 1 week after [3, 5]: 0.72; Relative concentration in blood, 1 hour after [3, 5]: 36.7; Relative concentration in blood, 3 hours after [3, 5]: 19; Relative concentration in blood, 2 days after [3, 5]: 0.89; Relative concentration in blood, 1 day after ([3]; nude mouse, tail vein, 0.5 mg/kg as dye, ICG 1 day after administration = 1 (Table 6)): 1; Relative concentration in blood (1 day after administration) ([3]; nude mouse, tail vein, 0.5 mg/kg as dye, concentration of ICG in blood 1 day after administration = 1 (Table 5)): 1; Half-life in blood [4]: about several minutes
